Common to all, as to format: cell-based
In one series the test system is E. faecalis. The series is described as follows: Minimal bactericidal concentration (MBC). The following applies: Mueller Hinton, 18 hours of incubation. As for the experimental part: (§1) The minimal bactericidal concentration (MBC) for each bacterial strain tested was determined as follows: The peptide was placed in a solution containing 0.01% acetic acid and 0.2% bovine serum albumin (BSA), then, serial dilutions of 2 in 2 are realized in the same 0.01% solution of acetic acid and 0.2% BSA. 10 μl of each dilution are incubated in sterile 96-well plates (Becton Dickinson, USA, ref: 18572) in the presence of 100 μl of a bacterial suspension brought to an optical density of 0.001 at 600 nm in the Mueller Hinton environment (MHB, SIGMA, ref: M-9677).
(§2) The bacterial growth is monitored after 18 hours of incubation under agitation. The MBC is determined by spreading out the content of the first three wells in which no bacterial growth was observed. This spreading out was carried out on Petri dishes on which an agar was poured prepared from the Mueller Hinton environment. These dishes were then incubated 18 hours. The MBC corresponds to the lowest concentration of peptide for which no bacterial colony was observed on the incubated dishes.

A further series deals with A. viridans. Kind of series: Minimal bactericidal concentration (MBC). Particulars: Mueller Hinton, 18 hours of incubation. As for the experimental part: as §1, §2
The next series deals with P. aeruginosa. The series is described as follows: Minimal bactericidal concentration (MBC). Particulars: Mueller Hinton, 18 hours of incubation. As for the experimental part:
as §1, §2

Another series concerns S. typhimutium. Kind of series: Minimal bactericidal concentration (MBC). The following applies: Mueller Hinton, 18 hours of incubation. As for the experimental part: as §1, §2
In the next series the test system is K. pneumoniae. The series is described as follows: Minimal bactericidal concentration (MBC). The following applies: Mueller Hinton, 18 hours of incubation. As for the experimental part: as §1, §2
A further series has as its system S. aureus. Kind of series: Minimal bactericidal concentration (MBC). The following applies: Mueller Hinton, 18 hours of incubation. As for the experimental part: as §1, §2
The test system of another series is B. megaterium. The series is described as follows: Minimal bactericidal concentration (MBC). Particulars: Mueller Hinton, 18 hours of incubation. As for the experimental part: as §1, §2
For the next series, the system named is E. aerogenes. Kind of series: Minimal bactericidal concentration (MBC). The following applies: Mueller Hinton, 18 hours of incubation. As for the experimental part: as §1, §2
For a further series, the system named is N. gonorrhoeae. The series is described as follows: Minimal bactericidal concentration (MBC). Particulars: Mueller Hinton, 18 hours of incubation. As for the experimental part:
as §1, §2

In the next series the test system is M. luteus. The series is described as follows: Minimal bactericidal concentration (MBC). Particulars: Mueller Hinton, 18 hours of incubation. As for the experimental part:
as §1, §2

In another series the test system is E. coli DH5α. Kind of series: Minimal bactericidal concentration (MBC). The following applies: Mueller Hinton, 18 hours of incubation. As for the experimental part:
as §1, §2

The next series deals with sheep erythrocytes. Kind of series: Hemolytic activity on sheep erythrocytes. As for the experimental part:
A known quantity of peptide was placed in a solution containing […] acetic acid and 0.2% bovine serum albumin (BSA) in such a manner as to obtain a stock solution with a concentration of […]; then, serial dilutions of this solution were realized in the same solution of 0.01% acetic acid and 0.2% BSA (AA-BSA). […] of each of these solutions or […] of a 10% Triton X-100 solution in PBS (control—peptide) were then added to 180 μl of a solution containing 2.5% (volume/volume) of the suspension of sheep erythrocytes in PBS. The mixture was then incubated 30 minutes at 37° C. then submitted to a centrifugation that 10000 g for 3 minutes. Finally, the supernatant was recovered and its absorbance measured at 600 nm. The percentage of hemolysis is then calculated with the following equation: % hemolysis=(A600 of the sample−A600 of control-peptide)/(A600 control 100% hemolysis−A600 control-peptide)×100.

Where no end group is shown, it is not given here. Some results are limits rather than exact numbers.

On to FWGHIWNAVKRVGANALHGAVTGALS [halocyntin], for which the minimal bactericidal concentration (MBC) was 6.25 to 12.5 µM in the series with E. faecalis; 3.13 to 6.25 µM against A. viridans; more than 100 µM with P. aeruginosa; 50 to 100 µM in the series on S. typhimutium; 12.5 to 25 µM in the series with K. pneumoniae; 6.25 to 12.5 µM in the series on S. aureus. Moreover, the MBC was in the range of 0.75 to 1.56 µM in the series on B. megaterium; 25 to 50 µM with E. aerogenes; 25 to 50 µM against N. gonorrhoeae; 1.56 to 3.13 µM against M. luteus; 6.25 to 12.5 µM against E. coli DH5α. Besides, the hemolytic activity result is recorded as “very faint hemolytic activity” with sheep erythrocytes (beyond 12.5 mM); 5.8% with sheep erythrocytes (concentration of 50 μM, 30 minutes at 37° C.); “does not show any hemolytic activity” with sheep erythrocytes (up to concentrations of 12.5 mM).
